# Measured values published in patent US20180201594A1, “Compound pac-1 or salt thereof and pharmaceutical composition comprising same” (priority 2015, published 2018).
# Experiments:
# [1] = test system: HT-1080 cells; test: Three-dimensional migration (Transwell assay), HT-1080; type: cell-based, human; conditions: for Cell number (transmembrane cells): 24 h, n = 9
# Description: Starved cells were digested and collected, which were suspended in serum-free medium. The cell intensity was adjusted into 3×10^5 s cells/mL. 100 μL of the cell suspension was added into the upper chamber and 700 μL of medium with 10% serum to the lower chamber per well. According to the experimental design, 50 μL serum-free medium was added per well for the control group, 50 μL of drug-containing serum-free medium was added for the administration groups. They were continued to be cultured in the incubator for another 24 h. The upper chamber was taken, with methanol fixation for 30 min, dyed with Giemsa stain for 30 min, rinsed with clean water twice. The cells on the bottom membrane surface of the upper chamber were carefully wiped off with a wet cotton swab, dried in the air. With the bottom up, they were transferred onto glass slide and sealed with neutral gum. Under the microscope, nine random fields were taken and the transmembrane cells therein were counted. The average values were statistically calculated.
# [2] = test system: NF-κB; test: NF-κB protein expression in HGC-27 cells (immunofluorescence); type: cell-based; conditions: n = 6
# Description: The sterilized cell transfer membrane was taken and placed into a 24-well plate, which was seeded with 1 mL (1×10^5 cells/mL) cell suspension, and cultured for 24 h. Drug-containing medium was added, The negative control groups and administration groups were set, with the experimental groups intervened for 24-48 h. The plate was washed with PBS, and fixed with 4% paraformaldehyde for 15 min. It was treated with 0.1% TritonX-100, and washed with PBS, blocked with 1:10 diluted normal serum blocking solution for 15 min. The plate was added 1:100 diluted primary antibody, placed at 4° C. overnight. The plate was washed with PBS, to which 1:100 diluted secondary antibodies was added and incubated at room temperature for 30 min. The plate was washed with PBS, to which 1:100 diluted SABC-FITC was added, and re-incubated at room temperature for additional 30 min. The unbound FITC was washed with PBS. We observed and taken pictures under fluorescence microscope, and analyzed the fluorescence intensity by Bioflux Montage software. 6 fields were selected randomly under microscope for each group and the integral optical density value of cells was calculated.
# [3] = test system: HGC-27, K562/A02, A549, HT-1080 cells; test: Tumor cell proliferation (MTT or CCK-8); type: cell-based, human; conditions: 48 h, FIG. 5-8
# Description: Experimental cells: gastric cancer cell line HGC-27, non-small cell lung cancer A549, human chronic myeloid leukemia cells doxorubicin resistant strains K562/A02, human fibrosarcoma HT-1080, human chronic myeloid leukemia cell K562.
# Experimental materials: PAC-1 needle crystal (prepared according to the method described in Quinn P. Peterson et al., J. Med. Chem. 2009, 52, 5721-5731), MTT solution (Amresco specification: 1 g, batch number: 2035B358), DMSO (Analytical Pure, Beijing Chemical Factory), 96-well plates (Corning), CCK-8 (Japanese Tongren Chemical Research Institute, specification: 500test, batch number: DJ706), fetal bovine serum was the product from the United States GIBCO, batch number: 608759, RPMI-1640 is the product of Hyclone, batch number: NWK0492, 0.25% Trypsin-EDTA is the product from the United States GIBCO company, batch number: 10T774768, DMSO: USA Sigma Corporation.
# The cells in logarithmic growth phase were collected. The cells was digested and the cell density was adjusted into 1-5×10^5 cells/mL, 100 μL per well in 96-well culture plate. The plated was cultured in a incubator with 37 ? , 5% CO2 saturated humidity. After adherent, different concentrations of PAC-1 and ZYS-1 were added for dosing groups. 6 dosage groups were set, with at least three parallel wells set in each group. […]
# [4] = in vivo; type: in vivo; conditions: both sexes, ICR, mouse, in vivo, po
# Description: (§1) Experimental material: ZYS-1
# (§2) Experimental animals and feeding conditions: ICR mice, half male and half female. Body weight 20±2 g, provided by Beijing Weitonglihua Experimental Animal Technology Co., Ltd., SPF grade feeding, certificate: SCXK (Beijing) 2006-0009. Particulate feed for mouse breeding was provided by Beijing Ke'ao Xieli Feed Co., Ltd. Animals were housed in barrier-level (Grade 2) animal lab in Beijing Anzhen Hospital, fluorescent lighting, 12 h light and dark cycle, room temperature 22˜24 ? , humidity 40-47%, air supply 10-12 times/h, Laboratory license number: SYXK (Beijing) 2005-0028. Mice were housed in clear plastic boxes with 5 per cage separated by gender.
# (§3) Preparation method of test drug: A white powder of ZYS-1 was placed in a mortar to be finely ground. The drug was accurately weighed before use, which was formulated with 0.5% CMC-Na to reach the desired concentration.
# (§4) Animals grouping: After fasting (except for water) for 11 h, according to body weight, animals were randomly divided into groups of 10 with 5 males and 5 females. There were 8 groups in total. […]. One-time intragastric administration was used in the experiment. The negative control group was orally administered an equal volume of 0.5% CMC-Na. The animals started feeding at 3 hours after administration.
# (§5) Observed indicators: immediately after administration, the observation of the responses of the animals to drugs (such as: general performance, respiration, activity, with or without convulsions, righting reflex, pain reflex, response to external stimuli and other indicators) was started. After observing and recording the symptom of toxic reaction, the time and duration of toxicity, recovery time, and the time of animal death. After the animal was dead, it was immediately grossly dissected, visually observing each of the main organs (heart, liver, spleen, lung and kidney, stomach) to see if there was congestion, increased volume, hardens, discoloration. The survival animals were observed and recorded day by day whether there was delayed toxicity reaction and delayed death within 7 days, and weigh and feed the animals once every 2 days. After finishing the 7 day's observation, the survival animals were grossly dissected and the situations of the main organs were observed. LD50 was calculated according to the number of animal deaths in each group.
# [5] = test system: ICR mice; test: in vivo; type: in vivo
# Description: as §1, §2, §3, §4, §5
# [6] = Homo sapiens, HT-1080, 24 h, read-out: Inhibition Rate
# [7] = both, ICR, mouse, in vivo, 7 days
# [8] = one-time intragastric administration, mice
smiles,measurement,setting,value
"C=CCc1cccc(/C=N/NC(=O)CN2CCN(Cc3ccccc3)CC2)c1O [ZYS-1, 1-Piperazineacetic acid, 4-(phenylmethyl)-2-[[2-hydroxy-3-(2-propen-1-yl)phenyl]methylene]]",Cell number (transmembrane cells),[1]; 2 μM,24.67 ± 8.46
same,Cell number (transmembrane cells),[1]; 4 μM,16.58 ± 4.18
same,Cell number (transmembrane cells),[1]; 8 μM,16.08 ± 5.07
same,inhibition at 2 µM,[1]; [6],33.5%
same,inhibition at 4 µM,[1]; [6],55.3%
same,inhibition at 8 µM,[1]; [6],56.6%
same,NF-κB protein expression (integral optical density value),[2]; 4 μM,43.83 ± 1.06
same,NF-κB protein expression (integral optical density value),[2]; 8 μM,40.94 ± 0.46
same,antitumor efficacy (cell proliferation) compared with PAC-1 needle crystal,[3],stronger antitumor efficacy than PAC-1 needle crystal
same,LD50 at 7 days,[4]; LD50 95% confidence limit,1090 to 2290 mg/kg
same,LD50 at 7 days,[4]; LD50 dose,1670 mg/kg
same,0% mortality dose,[5]; [7],343 mg/kg
same,non-significant toxic reaction dose,[5]; [7],343 mg/kg
same,"neurotoxicity, ZYS-1 compared with PAC-1","[5]; both, ICR, mouse, in vivo, po, 7 days","Comparing the experimental results of acute toxicity of ZYS-1 and PAC-1, it can be seen that ZYS-1 has lower neurotoxicity."
same,time for most survival animals to return to normal after administration,[5]; [8],≤ 12 h
same,time of death after administration (mainly),[5]; [8],≤ 6 h
